Test system: CD4^+T cells from small intestine lamina propria and spleen
Assay: Oral Listeria monocytogenes infection (and naïve mice) treated with RA or LE540: IL-17^+ and Foxp3^+ CD4 T cells
Assay type: in vivo, mouse
From the text: Listeria monocytogenes (strain WT LMOVA) was used. Mice were orally infected (gavage) with 5×10^8 CFU of L. monocytogenes. Mice received i.p. injections of vehicle, RA or LE540 on the same day and 2 days after infection. Mice were sacrificed 5 days post-infection for analysis.
Every second day, in a interval of two weeks, naïve mice received gavage of either vehicle, RA or LE540.
Liver lymphocytes were isolated using 37.5% isotonic Percoll (GE Healthcare, USA), as previously described [Y. Kinjo et al, Nat Immunol 7, 978 (2006)]. Intestinal lymphocytes were isolated and prepared as previously described [Aranda et al., J Immunol 158, 3464 (1997)]. Briefly, small and large intestines were removed and placed in chilled HBSS media containing 5% FCS. The intestines were carefully cleaned from the mesentery and flushed of fecal content. Intestines were opened longitudinally and then cut into 1 cm pieces. The intestinal tissue was transferred to a 250-ml Erlenmeyer flasks containing 25 ml of preheated HBSS complemented with 2% FCS and 1 mM DTT (Sigma, USA) and shaken at 200 rpm for 40 min at 37° C. The tissue suspension was passed through a stainless steel sieve into 50-ml conical tubes and the cells were pelleted by centrifugation at 1200 rpm for 10 min at 4° C. The cell pellet was resuspended in complete HBSS, layered over a discontinuous 40/70% Percoll gradient, and centrifuged at 2000 rpm for 30 min. Cells from the 40/70% interface were collected, washed and resuspended in complete RPMI media. These purified cells constituted the intraepithelial lymphocyte (IEL) population. To isolate the lamina propria lymphocytes (LPL), the remaining intestinal tissue in the stainless steel sieve was minced and transferred to conical tubes. The minced pieces were resuspended in 20 ml of complete RPMI containing 1 mg/ml of collagenase (Sigma, USA) and shaken at 200 rpm for 40 min at 37° C. The tissue suspension was collected and passed through a 70 μm cell strainer and the cells were pelleted by centrifugation at 1200 rpm. The cells were then resuspended and layered onto a 40/70% Percoll gradient, centrifugated and processed as described above for the IEL preparation.
To block non-specific staining, the 2.4G2 anti-CD16/32 antibody was added. […] For intracellular cytokine staining, cells obtained from in vitro cultures or isolated IELs were incubated for 4-5 hours with 50 ng/ml PMA, 750 ng/ml Ionomycin (both Sigma, USA) and 10 μg/ml Brefeldin A (Invitrogen, USA) in a tissue culture incubator at 37° C.
For Foxp3 staining, no stimulation with PMA/Ionomycin was performed, with the exceptions of FIGS. 8B and 9A. In these cases, the time of incubation with PMA/Ion was reduced to 3.5 hours. Intracellular Foxp3 staining was performed as per the eBioscience's Foxp3-staining kit protocol.

## CC1=C(/C=C/C(C)=C/C=C/C(C)=C/C(=O)O)C(C)(C)CCC1 [RA, All-trans retinoic acid]
5 days after oral L. monocytogenes infection, i.p. days 0 and 2, RA 300 μg/mouse, LE540 100 μg/mouse
  Th-17 mucosal T cells (IL-17 staining of CD4^+T cells, small intestine lamina propria): measurable reduction
Lm challenged mice, 5 days after oral infection
  differentiation / number of mucosal Foxp3^+Treg cells (small intestine lamina propria): not found to measurably enhance
Lm infected mice (2 i.p. injections) and naïve mice (2-week gavage)
  spleen Foxp3^+CD4 cells: No effect

From patent publication US20090136470A1, “REGULATORY T CELLS AND METHODS OF MAKING AND USING SAME” (priority 2007, published 2009)
